Measurements published in US10308639B2, “Phosphatidylinositol 3-kinase inhibitors” (Gilead Sciences, Inc., priority 2014, dated 2019).
Read-outs that look alike come from different tables or passages of the source.

Assays:
Format in all cases: biochemical
PI3Kγ = molecular target: T1, PI3Kγ (Homo sapiens, UniProt P48736); assay: TR-FRET enzymatic activity assay, PI3Kγ; conditions: read-out: PI3Kγ IC50
T1 construct: made in house
Method: The compounds of formula (I) were characterized for their enzymatic activity against the PI3K isoforms. The activities were measured using a time-resolved fluorescence resonance energy transfer (TR-FRET) assay.

PI3Kδ = molecular target: T2, PI3Kδ (Homo sapiens, UniProt O00329); assay: TR-FRET enzymatic activity assay, PI3Kδ
T2 construct: made in house
T2 sequence (O00329 whole entry): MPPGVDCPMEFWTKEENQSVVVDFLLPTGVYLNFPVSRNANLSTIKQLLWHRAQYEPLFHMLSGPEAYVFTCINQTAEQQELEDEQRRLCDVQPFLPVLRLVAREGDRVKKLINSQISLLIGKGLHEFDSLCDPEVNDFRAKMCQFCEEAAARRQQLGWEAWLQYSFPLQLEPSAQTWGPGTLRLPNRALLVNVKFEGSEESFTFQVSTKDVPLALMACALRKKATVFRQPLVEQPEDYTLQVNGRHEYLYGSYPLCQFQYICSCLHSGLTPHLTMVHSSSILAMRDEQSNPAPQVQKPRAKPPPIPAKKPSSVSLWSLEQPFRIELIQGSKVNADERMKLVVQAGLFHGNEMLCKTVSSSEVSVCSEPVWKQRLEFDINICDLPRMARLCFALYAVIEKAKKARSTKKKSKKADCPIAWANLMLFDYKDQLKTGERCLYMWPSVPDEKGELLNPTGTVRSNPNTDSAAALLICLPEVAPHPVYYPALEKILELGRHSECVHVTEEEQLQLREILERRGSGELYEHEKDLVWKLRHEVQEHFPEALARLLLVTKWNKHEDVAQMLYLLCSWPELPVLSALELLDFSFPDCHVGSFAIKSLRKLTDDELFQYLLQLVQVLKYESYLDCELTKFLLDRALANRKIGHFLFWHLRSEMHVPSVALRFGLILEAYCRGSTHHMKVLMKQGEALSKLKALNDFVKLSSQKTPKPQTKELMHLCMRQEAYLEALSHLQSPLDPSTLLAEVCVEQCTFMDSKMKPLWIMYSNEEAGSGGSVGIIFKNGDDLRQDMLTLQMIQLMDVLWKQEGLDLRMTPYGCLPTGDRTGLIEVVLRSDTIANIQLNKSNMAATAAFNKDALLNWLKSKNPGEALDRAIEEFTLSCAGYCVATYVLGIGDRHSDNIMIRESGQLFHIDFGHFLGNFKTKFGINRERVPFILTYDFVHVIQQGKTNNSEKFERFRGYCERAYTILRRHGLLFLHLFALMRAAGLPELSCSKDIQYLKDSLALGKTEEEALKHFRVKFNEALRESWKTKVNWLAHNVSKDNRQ
T2 sequence (P27986 whole entry partner): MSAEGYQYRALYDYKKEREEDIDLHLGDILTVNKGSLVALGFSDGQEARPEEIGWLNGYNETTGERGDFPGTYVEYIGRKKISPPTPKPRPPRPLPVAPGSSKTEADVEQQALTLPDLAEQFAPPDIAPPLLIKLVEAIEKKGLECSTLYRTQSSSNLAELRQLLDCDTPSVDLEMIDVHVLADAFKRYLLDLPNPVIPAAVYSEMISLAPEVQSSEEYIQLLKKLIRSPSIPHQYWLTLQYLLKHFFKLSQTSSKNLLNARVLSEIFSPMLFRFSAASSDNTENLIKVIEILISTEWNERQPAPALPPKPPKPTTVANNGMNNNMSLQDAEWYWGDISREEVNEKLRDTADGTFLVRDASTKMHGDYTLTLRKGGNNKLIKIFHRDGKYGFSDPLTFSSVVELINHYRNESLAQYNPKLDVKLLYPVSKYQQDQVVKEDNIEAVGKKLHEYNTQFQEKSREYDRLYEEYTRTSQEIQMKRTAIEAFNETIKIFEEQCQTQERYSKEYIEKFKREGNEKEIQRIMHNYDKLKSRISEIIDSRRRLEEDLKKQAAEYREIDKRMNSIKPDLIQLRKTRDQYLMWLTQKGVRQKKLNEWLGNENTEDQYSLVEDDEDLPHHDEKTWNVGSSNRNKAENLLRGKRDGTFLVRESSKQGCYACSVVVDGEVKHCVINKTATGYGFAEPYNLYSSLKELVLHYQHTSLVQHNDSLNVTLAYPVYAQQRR

PI3Kβ = molecular target: T3, PI3Kβ (Homo sapiens, UniProt P42338); assay: TR-FRET enzymatic activity assay, PI3Kβ
T3 construct: made in house
T3 sequence (P42338 whole entry): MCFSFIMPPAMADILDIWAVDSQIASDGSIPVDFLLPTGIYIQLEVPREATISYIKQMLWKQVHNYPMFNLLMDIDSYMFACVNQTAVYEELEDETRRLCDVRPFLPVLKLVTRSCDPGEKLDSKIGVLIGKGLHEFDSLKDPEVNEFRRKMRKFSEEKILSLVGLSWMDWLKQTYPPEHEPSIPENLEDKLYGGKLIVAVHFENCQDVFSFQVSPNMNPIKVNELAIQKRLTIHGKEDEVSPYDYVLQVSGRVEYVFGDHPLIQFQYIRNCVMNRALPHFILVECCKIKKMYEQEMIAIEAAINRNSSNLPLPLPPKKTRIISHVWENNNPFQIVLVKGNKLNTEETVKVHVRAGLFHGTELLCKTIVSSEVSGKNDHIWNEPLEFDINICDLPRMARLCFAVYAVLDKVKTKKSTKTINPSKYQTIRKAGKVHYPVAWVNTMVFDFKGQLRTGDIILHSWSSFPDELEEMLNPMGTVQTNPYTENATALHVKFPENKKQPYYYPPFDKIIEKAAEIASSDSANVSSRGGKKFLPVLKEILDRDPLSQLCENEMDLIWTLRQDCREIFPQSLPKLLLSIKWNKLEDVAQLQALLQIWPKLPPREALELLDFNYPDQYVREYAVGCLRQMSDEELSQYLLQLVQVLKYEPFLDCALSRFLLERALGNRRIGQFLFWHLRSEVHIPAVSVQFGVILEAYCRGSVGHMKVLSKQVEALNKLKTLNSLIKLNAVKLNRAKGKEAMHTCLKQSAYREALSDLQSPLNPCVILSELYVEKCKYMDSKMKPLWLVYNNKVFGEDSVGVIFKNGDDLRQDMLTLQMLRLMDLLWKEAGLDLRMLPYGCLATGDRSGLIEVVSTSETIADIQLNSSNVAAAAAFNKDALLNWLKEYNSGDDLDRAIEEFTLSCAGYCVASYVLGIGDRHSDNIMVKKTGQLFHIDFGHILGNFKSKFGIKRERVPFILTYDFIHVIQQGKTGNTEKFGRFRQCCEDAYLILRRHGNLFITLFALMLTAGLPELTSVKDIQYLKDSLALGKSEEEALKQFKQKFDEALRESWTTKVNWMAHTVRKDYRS
T3 sequence (P27986 whole entry partner): as the sequence (P27986 whole entry partner) above

[1] = Table 2, TR-FRET, 2x Km ATP, 30 minutes at 25° C.

T1 sequence (P48736 whole entry): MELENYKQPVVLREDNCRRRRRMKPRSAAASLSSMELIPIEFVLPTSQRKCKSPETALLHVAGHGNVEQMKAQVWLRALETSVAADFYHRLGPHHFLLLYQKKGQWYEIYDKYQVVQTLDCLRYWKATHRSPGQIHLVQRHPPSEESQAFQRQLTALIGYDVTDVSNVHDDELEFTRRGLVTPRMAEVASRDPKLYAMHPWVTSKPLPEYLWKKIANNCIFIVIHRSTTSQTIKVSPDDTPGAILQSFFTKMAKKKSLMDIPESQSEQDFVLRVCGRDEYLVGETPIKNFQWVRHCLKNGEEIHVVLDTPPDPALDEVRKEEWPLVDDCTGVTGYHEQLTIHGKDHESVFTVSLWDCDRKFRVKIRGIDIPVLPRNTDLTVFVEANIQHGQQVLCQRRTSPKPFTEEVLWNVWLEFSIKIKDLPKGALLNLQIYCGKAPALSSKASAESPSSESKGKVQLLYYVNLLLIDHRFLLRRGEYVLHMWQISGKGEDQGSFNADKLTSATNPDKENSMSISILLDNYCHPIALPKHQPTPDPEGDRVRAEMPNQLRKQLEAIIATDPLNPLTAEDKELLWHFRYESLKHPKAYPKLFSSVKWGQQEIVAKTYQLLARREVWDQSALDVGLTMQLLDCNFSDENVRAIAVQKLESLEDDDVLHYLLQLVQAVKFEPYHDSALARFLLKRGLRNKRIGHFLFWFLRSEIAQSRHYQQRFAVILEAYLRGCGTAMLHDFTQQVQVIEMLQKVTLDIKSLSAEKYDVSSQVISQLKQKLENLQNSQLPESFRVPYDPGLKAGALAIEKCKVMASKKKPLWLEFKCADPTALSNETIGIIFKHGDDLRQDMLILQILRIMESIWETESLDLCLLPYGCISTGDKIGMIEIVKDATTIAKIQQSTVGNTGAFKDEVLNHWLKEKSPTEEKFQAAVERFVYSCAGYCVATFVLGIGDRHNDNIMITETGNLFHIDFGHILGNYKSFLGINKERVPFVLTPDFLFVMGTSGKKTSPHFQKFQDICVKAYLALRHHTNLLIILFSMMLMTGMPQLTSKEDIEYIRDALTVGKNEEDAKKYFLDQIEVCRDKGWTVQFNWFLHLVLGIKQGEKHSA

Row | Compound | IC50 (PI3Kγ; Table 2a, same assay) [µM] | IC50 (PI3Kδ; Table 2a, same assay) [µM] | IC50 (PI3Kβ; Table 2a, same assay) [µM] | IC50 (PI3Kγ) [µM] | IC50 (PI3Kδ; [1]) [µM] | IC50 (PI3Kβ; [1]) [µM] | IC50 (PI3Kδ) [µM] | IC50 (PI3Kγ; [1]) [µM]
1 | Cc1n[nH]cc1-n1c([C@@H](Nc2nc(N)nc(N)c2C#N)C2CC2)nc2c(Cl)cc(F)cc2c1=O [Compound 220, (S)-2,4-diamino-6-(((8-chloro-6-fluoro-3-(3-methyl-1H-pyrazol-4-yl)-4-oxo-3,4-dihydroquinazolin-2-yl)(cyclopropyl)methyl)amino)pyrimidine-5-carbonitrile] | 2.2 | 0.007 | 0.042 |  |  |  |  | 
2 | Nc1nc(N)c(Cl)c(N[C@H](c2nc3c(C(F)F)cc(F)cc3c(=O)n2-c2cc[nH]n2)C2CC2)n1 [Compound 144, (S)-2-(cyclopropyl((2,6-diamino-5-chloropyrimidin-4-yl)amino)methyl)-8-(difluoromethyl)-6-fluoro-3-(1H-pyrazol-3-yl)quinazolin-4(3H)-one] | > 10 | 0.19 | 0.13 |  |  |  |  | 
3 | Cc1n[nH]cc1-n1c([C@@H](Nc2nc(N)nc(N)c2Cl)C2CC2)nc2c(Cl)cc(F)cc2c1=O [Compound 221, (S)-8-chloro-2-(cyclopropyl((2,6-diamino-5-chloropyrimidin-4-yl)amino)methyl)-6-fluoro-3-(3-methyl-1H-pyrazol-4-yl)quinazolin-4(3H)-one] | > 10 | 0.18 | 1.1 |  |  |  |  | 
4 | C[C@H](Nc1ncnc2scnc12)c1nc2cccc(Cl)c2c(=O)n1-c1n[nH]cc1Br [Compound 104, (S)-3-(4-bromo-1H-pyrazol-3-yl)-5-chloro-2-(1-(thiazolo[5,4-d]pyrimidin-7-ylamino)ethyl)quinazolin-4(3H)-one] |  |  |  |  | 0.002 | 0.061 |  | 0.5
5 | Cc1n[nH]cc1-n1c([C@H](C)Nc2nc(N)nc(N)c2C#N)nc2cccc(Cl)c2c1=O [Compound 216, (S)-2,4-diamino-6-((1-(5-chloro-3-(3-methyl-1H-pyrazol-4-yl)-4-oxo-3,4-dihydroquinazolin-2-yl)ethyl)amino)pyrimidine-5-carbonitrile] | 0.04 | 0.0004 | 0.003 |  |  |  |  | 
6 | O=c1c2c(Cl)ccc(Cl)c2nc([C@@H](Nc2ncnc3scnc23)C2CC2)n1-c1cn[nH]c1 [Compound 38, (S)-5,8-dichloro-2-(cyclopropyl(thiazolo[5,4-d]pyrimidin-7-ylamino)methyl)-3-(1H-pyrazol-4-yl)quinazolin-4(3H)-one] |  |  |  |  | 0.004 | 0.009 |  | 1.1
7 | CC[C@H](Nc1nc(N)nc(N)c1Cl)c1nc2c(C#N)cccc2c(=O)n1-c1cn[nH]c1 [Compound 95, (S)-2-(1-((2,6-diamino-5-chloropyrimidin-4-yl)amino)propyl)-4-oxo-3-(1H-pyrazol-4-yl)-3,4-dihydroquinazoline-8-carbonitrile] |  |  |  | > 10 | 0.3 | 1.7 |  | 
8 | N#Cc1c(N[C@H](c2nc3c(C(F)F)cc(F)cc3c(=O)n2-c2cc[nH]n2)C2CC2)nc(N)nc1C(F)F [Compound 145, (S)-2-amino-4-((cyclopropyl(8-(difluoromethyl)-6-fluoro-4-oxo-3-(1H-pyrazol-3-yl)-3,4-dihydroquinazolin-2-yl)methyl)amino)-6-(difluoromethyl)pyrimidine-5-carbonitrile] | > 10 | 0.046 | 0.028 |  |  |  |  | 
9 | CC[C@H](Nc1nc(N)nc2[nH]nc(Br)c12)c1nc2c(C#N)cccc2c(=O)n1-c1cc[nH]n1 [Compound 80, (S)-2-(1-((6-amino-3-bromo-1H-pyrazolo[3,4-d]pyrimidin-4-yl)amino)propyl)-4-oxo-3-(1H-pyrazol-3-yl)-3,4-dihydroquinazoline-8-carbonitrile] |  |  |  | > 10 | 0.035 | 0.022 |  | 
10 | C[C@H](Nc1nc(N)nc(N)c1Cl)c1nc2c(C(F)F)cccc2c(=O)n1-c1cc[nH]n1 [Compound 200, (S)-2-(1-((2,6-diamino-5-chloropyrimidin-4-yl)amino)ethyl)-8-(difluoromethyl)-3-(1H-pyrazol-3-yl)quinazolin-4(3H)-one] | > 10 | 0.16 | 0.28 |  |  |  |  | 
11 | CC[C@H](Nc1ncnc2[nH]cc(F)c12)c1nc2c(Cl)ccc(Cl)c2c(=O)n1-c1cn[nH]c1 [Compound 58, (S)-5,8-dichloro-2-(1-((5-fluoro-7H-pyrrolo[2,3-d]pyrimidin-4-yl)amino)propyl)-3-(1H-pyrazol-4-yl)quinazolin-4(3H)-one] |  |  |  |  | 0.014 | 0.32 |  | 5.9
12 | CC[C@H](Nc1ncnc2scnc12)c1nc2cccc(Br)c2c(=O)n1-c1cc[nH]n1 [Compound 101, (S)-5-bromo-3-(1H-pyrazol-3-yl)-2-(1-(thiazolo[5,4-d]pyrimidin-7-ylamino)propyl)quinazolin-4(3H)-one] |  |  |  |  | 0.0005 | 0.001 |  | 0.96
13 | CC[C@H](NC(=O)c1cnn2cccnc12)c1nc2c(Cl)ccc(Cl)c2c(=O)n1-c1cn[nH]c1 [Compound 119, (S)—N-(1-(5,8-dichloro-4-oxo-3-(1H-pyrazol-4-yl)-3,4-dihydroquinazolin-2-yl)propyl)pyrazolo[1,5-a]pyrimidine-3-carboxamide] |  |  |  |  | 0.17 | 0.36 |  | 7.2
14 | Nc1nc(N)c(Cl)c(N[C@H](c2nc3c(F)cc(F)cc3c(=O)n2-c2cc[nH]n2)C2CC2)n1 [Compound 162, (S)-2-(cyclopropyl((2,6-diamino-5-chloropyrimidin-4-yl)amino)methyl)-6,8-difluoro-3-(1H-pyrazol-3-yl)quinazolin-4(3H)-one] | 6.1 | 0.005 | 0.037 |  |  |  |  | 
15 | CC[C@H](Nc1ncnc2ccc(Cl)nc12)c1nc2c(Cl)ccc(Cl)c2c(=O)n1-c1cn[nH]c1 [Compound 42, (S)-5,8-dichloro-2-(1-((6-chloropyrido[3,2-d]pyrimidin-4-yl)amino)propyl)-3-(1H-pyrazol-4-yl)quinazolin-4(3H)-one] |  |  |  |  | 0.01 | 0.077 |  | 0.46

The remaining lines, values ahead:

Row | IC50 (PI3Kγ; Table 2a, same assay) [µM] | IC50 (PI3Kδ; Table 2a, same assay) [µM] | IC50 (PI3Kβ; Table 2a, same assay) [µM] | IC50 (PI3Kγ) [µM] | IC50 (PI3Kδ; [1]) [µM] | IC50 (PI3Kβ; [1]) [µM] | IC50 (PI3Kδ) [µM] | IC50 (PI3Kγ; [1]) [µM] | Compound
16 | > 10 | 0.027 | 0.12 |  |  |  |  |  | CCC[C@H](Nc1nc(N)nc(N)c1Cl)c1nc2ccc(F)c(Cl)c2c(=O)n1-c1cc[nH]n1 [Compound 267, (S)-5-chloro-2-(1-((2,6-diamino-5-chloropyrimidin-4-yl)amino)butyl)-6-fluoro-3-(1H-pyrazol-3-yl)quinazolin-4(3H)-one]
17 | 0.36 | 0.0002 | 0.0006 |  |  |  |  |  | Cc1ccc(Cl)c2nc([C@H](C)Nc3nc(N)nc(N)c3C#N)n(-c3cc[nH]n3)c(=O)c12 [Compound 222, (S)-2,4-diamino-6-((1-(8-chloro-5-methyl-4-oxo-3-(1H-pyrazol-3-yl)-3,4-dihydroquinazolin-2-yl)ethyl)amino)pyrimidine-5-carbonitrile]
18 |  |  |  | > 10 | 0.009 | 0.12 |  |  | CC[C@H](Nc1ncnc2ccoc12)c1nc2c(Cl)ccc(Cl)c2c(=O)n1-c1cc[nH]n1 [Compound 62, (S)-5,8-dichloro-2-(1-(furo[3,2-d]pyrimidin-4-ylamino)propyl)-3-(1H-pyrazol-3-yl)quinazolin-4(3H)-one]
19 |  |  |  | > 10 | 0.006 | 0.07 |  |  | CC[C@H](Nc1ncnc2[nH]cnc12)c1nc2c(Cl)ccc(Cl)c2c(=O)n1-c1cc[nH]n1 [Compound 52, (S)-2-(1-((9H-purin-6-yl)amino)propyl)-5,8-dichloro-3-(1H-pyrazol-3-yl)quinazolin-4(3H)-one]
20 |  |  |  | > 10 |  | 0.097 | 0.002 |  | CC[C@H](Nc1ncnc2[nH]cc(F)c12)c1nc2c(Cl)ccc(Cl)c2c(=O)n1-c1cc[nH]n1 [Compound 59, (S)-5,8-dichloro-2-(1-((5-fluoro-7H-pyrrolo[2,3-d]pyrimidin-4-yl)amino)propyl)-3-(1H-pyrazol-3-yl)quinazolin-4(3H)-one]
21 | 0.22 | 0.0007 | 0.002 |  |  |  |  |  | C[C@H](Nc1nc(N)nc(N)c1C#N)c1nc2ccc(F)c(Cl)c2c(=O)n1-c1cc[nH]n1 [Compound 260, (S)-2,4-diamino-6-((1-(5-chloro-6-fluoro-4-oxo-3-(1H-pyrazol-3-yl)-3,4-dihydroquinazolin-2-yl)ethyl)amino)pyrimidine-5-carbonitrile]
22 |  |  |  |  | 0.003 | 0.001 |  | 5.1 | CC[C@H](Nc1nc(N)nc(N)c1C#N)c1nc2c(C#N)cccc2c(=O)n1-c1cc[nH]n1 [Compound 75, (S)-2-(1-((2,6-diamino-5-cyanopyrimidin-4-yl)amino)propyl)-4-oxo-3-(1H-pyrazol-3-yl)-3,4-dihydroquinazoline-8-carbonitrile]
23 | 1.4 | 0.002 | 0.002 |  |  |  |  |  | CCC[C@H](Nc1nc(N)nc(N)c1C#N)c1nc2c(Cl)ccc(Cl)c2c(=O)n1-c1cc[nH]n1 [Compound 254, (S)-2,4-diamino-6-((1-(5,8-dichloro-4-oxo-3-(1H-pyrazol-3-yl)-3,4-dihydroquinazolin-2-yl)butyl)amino)pyrimidine-5-carbonitrile]
24 | > 10 | 0.03 | 0.15 |  |  |  |  |  | CCC[C@H](Nc1nc(N)nc(N)c1Cl)c1nc2c(Cl)ccc(Cl)c2c(=O)n1-c1cc[nH]n1 [Compound 255, (S)-5,8-dichloro-2-(1-((2,6-diamino-5-chloropyrimidin-4-yl)amino)butyl)-3-(1H-pyrazol-3-yl)quinazolin-4(3H)-one]
25 | 0.77 | 0.002 | 0.01 |  |  |  |  |  | CCC[C@H](Nc1nc(N)nc(N)c1C#N)c1nc2c(Cl)ccc(Cl)c2c(=O)n1-c1cn[nH]c1 [Compound 251, (S)-2,4-diamino-6-((1-(5,8-dichloro-4-oxo-3-(1H-pyrazol-4-yl)-3,4-dihydroquinazolin-2-yl)butyl)amino)pyrimidine-5-carbonitrile]
